# Laboratory results reported in PubChem BioAssay (NCI).
#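 1) Cells in 96-well plates. 2) Compound, 48 h, 5 concentrations. 3) Linear interpolation between surrounding doses. 4) Unreached endpoint = highest concentration. Abbreviation: GI50, concentration required for 50% inhibition of growth. TGI denotes the concentration required for complete inhibition of growth.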
# Columns and labels:
# Experiment in all cases: NCI anticancer screen, dose series, 48 h
# [1] = system: 786-0 renal
# [2] = system: A549 NSCLC
# [3] = system: BT-549 breast
# [4] = system: CAKI-1 renal
# [5] = system: CCRF-CEM leukemia
# [6] = system: COLO 205 colon
# [7] = system: DU-145 prostate
# [8] = system: EKVX NSCLC
# [9] = system: HCC-2998 colon
# [10] = system: HCT-116 colon
# [11] = system: HCT-15 colon
# [12] = system: HL-60(TB) leukemia
# [13] = system: HOP-92 NSCLC
# [14] = system: HT29 colon
# [15] = system: IGROV1 ovarian
# [16] = system: K-562 leukemia
# [17] = system: KM12 colon
# [18] = system: LOX IMVI melanoma
# [19] = system: M14 melanoma
# [20] = system: MCF7 breast
# [21] = system: MDA-MB-231 breast
# [22] = system: MDA-MB-435
# [23] = system: MOLT-4 leukemia
# [24] = system: NCI-H460 lung
# [25] = system: NCI-H522 lung
# [26] = system: NCI/ADR-RES ovarian
# [27] = system: OVCAR-3 ovarian
# [28] = system: OVCAR-4 ovarian
# [29] = system: OVCAR-5 ovarian
# [30] = system: OVCAR-8 ovarian
# [31] = system: PC-3 prostate
# [32] = system: RPMI-8226 leukemia
# [33] = system: RXF 393 renal
# [34] = system: SF-268 CNS
# [35] = system: SF-295 CNS
# [36] = system: SF-539 CNS
# [37] = system: SK-MEL-2 melanoma
# [38] = system: SK-MEL-28 melanoma
# [39] = system: SK-MEL-5 melanoma
# [40] = system: SK-OV-3 ovarian
# [41] = system: SN12C renal
# [42] = system: SNB-19 CNS
# [43] = system: SNB-75 CNS
# [44] = system: SR leukemia
# [45] = system: SW-620 colon
# [46] = system: T-47D breast
# [47] = system: TK-10 renal
# [48] = system: U251 CNS
# [49] = system: UACC-257 melanoma
# [50] = system: UACC-62 melanoma
# [51] = system: UO-31 renal
smiles,measurement,setting,value
CC(C)=CCC/C(C)=C/CC/C(=C/COP(=O)(OCc1ccc([N+](=O)[O-])o1)N(C)CCCCCl)CC=C(C)C (configuration not stated),GI50,[1],5.7 µM
same,TGI,[1],19.2 µM
same,GI50,[2],8.66 µM
same,TGI,[2],24.2 µM
same,GI50,[3],2.31 µM
same,TGI,[3],7 µM
same,GI50,[4],4.06 µM
same,TGI,[4],19.7 µM
same,GI50,[5],6.16 µM
same,TGI,[5],> 100 µM
same,GI50,[6],8.01 µM
same,TGI,[6],66.4 µM
same,GI50,[7],1.94 µM
same,TGI,[7],18.6 µM
same,GI50,[8],3.73 µM
same,TGI,[8],19.8 µM
same,GI50,[9],0.0597 µM
same,TGI,[9],2.45 µM
same,GI50,[10],2.06 µM
same,TGI,[10],7.97 µM
same,GI50,[11],2.65 µM
same,TGI,[11],12.5 µM
same,GI50,[12],4.81 µM
same,TGI,[12],> 100 µM
same,GI50,[13],16.5 µM
same,TGI,[13],36 µM
same,GI50,[14],4.56 µM
same,TGI,[14],33.6 µM
same,GI50,[15],3.39 µM
same,TGI,[15],14.4 µM
same,GI50,[16],9.45 µM
same,TGI,[16],> 100 µM
same,GI50,[17],2.98 µM
same,TGI,[17],17.1 µM
same,GI50,[18],2.92 µM
same,TGI,[18],11.5 µM
same,GI50,[19],2.62 µM
same,TGI,[19],10.2 µM
same,GI50,[20],1.88 µM
same,TGI,[20],5.91 µM
same,GI50,[21],8.58 µM
same,TGI,[21],22.8 µM
same,GI50,[22],4.98 µM
same,TGI,[22],23.7 µM
same,GI50,[23],4.14 µM
same,TGI,[23],> 100 µM
same,GI50,[24],3.75 µM
same,TGI,[24],11.8 µM
same,GI50,[25],2.04 µM
same,TGI,[25],7.47 µM
same,GI50,[26],6.11 µM
same,TGI,[26],21.3 µM
same,GI50,[27],11.6 µM
same,TGI,[27],29.4 µM
same,GI50,[28],11.9 µM
same,TGI,[28],48.3 µM
same,GI50,[29],10.6 µM
same,TGI,[29],24.3 µM
same,GI50,[30],3.04 µM
same,TGI,[30],13.5 µM
same,GI50,[31],8.62 µM
same,TGI,[31],24.3 µM
same,GI50,[32],3.56 µM
same,TGI,[32],> 100 µM
same,GI50,[33],6.03 µM
same,TGI,[33],22.8 µM
same,GI50,[34],15.1 µM
same,TGI,[34],29.9 µM
same,GI50,[35],7.14 µM
same,TGI,[35],26 µM
same,GI50,[36],3.52 µM
same,TGI,[36],11.9 µM
same,GI50,[37],3.09 µM
same,TGI,[37],14.1 µM
same,GI50,[38],19.6 µM
same,TGI,[38],43 µM
same,GI50,[39],3.96 µM
same,TGI,[39],12.1 µM
same,GI50,[40],18.2 µM
same,TGI,[40],55.8 µM
same,GI50,[41],2.98 µM
same,TGI,[41],12.3 µM
same,GI50,[42],19.5 µM
same,TGI,[42],41.9 µM
same,GI50,[43],12.1 µM
same,TGI,[43],36.8 µM
same,GI50,[44],3.02 µM
same,TGI,[44],> 100 µM
same,GI50,[45],2.92 µM
same,TGI,[45],6.98 µM
same,GI50,[46],38 µM
same,TGI,[46],> 100 µM
same,GI50,[47],14.6 µM
same,TGI,[47],30.8 µM
same,GI50,[48],2.78 µM
same,TGI,[48],11.8 µM
same,GI50,[49],6.57 µM
same,TGI,[49],22.5 µM
same,GI50,[50],14.3 µM
same,TGI,[50],32.5 µM
same,GI50,[51],5.56 µM
same,TGI,[51],18.2 µM
